According to ChEMBL document CHEMBL3045439, “Isoforms of the heteropteran Nezara viridula ecdysone receptor: protein characterisation, RH5992 insecticide binding and homology modelling” (Pest Manag Sci, 2011):

Experiments:
Type in all cases: protein-complex assay
Ecdysone receptor [1] = target: T1, Ecdysone receptor (Nezara viridula, UniProt E5L6Y0+E5L6Y1); experiment: Binding affinity to Nezara viridula EcR11
T1 sequence (E5L6Y1 whole entry): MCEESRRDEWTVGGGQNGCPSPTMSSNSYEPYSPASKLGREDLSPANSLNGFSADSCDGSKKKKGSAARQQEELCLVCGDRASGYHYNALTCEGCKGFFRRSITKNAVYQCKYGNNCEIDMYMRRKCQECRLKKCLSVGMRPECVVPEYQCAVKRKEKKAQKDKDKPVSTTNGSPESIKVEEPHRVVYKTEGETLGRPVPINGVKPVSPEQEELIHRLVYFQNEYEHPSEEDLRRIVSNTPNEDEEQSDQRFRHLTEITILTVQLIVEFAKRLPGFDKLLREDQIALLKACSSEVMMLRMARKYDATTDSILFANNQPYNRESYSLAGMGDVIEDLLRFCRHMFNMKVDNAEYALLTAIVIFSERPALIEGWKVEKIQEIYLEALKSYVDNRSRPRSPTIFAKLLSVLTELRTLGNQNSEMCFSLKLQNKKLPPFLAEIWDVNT
T1 sequence (E5L6Y0 whole entry): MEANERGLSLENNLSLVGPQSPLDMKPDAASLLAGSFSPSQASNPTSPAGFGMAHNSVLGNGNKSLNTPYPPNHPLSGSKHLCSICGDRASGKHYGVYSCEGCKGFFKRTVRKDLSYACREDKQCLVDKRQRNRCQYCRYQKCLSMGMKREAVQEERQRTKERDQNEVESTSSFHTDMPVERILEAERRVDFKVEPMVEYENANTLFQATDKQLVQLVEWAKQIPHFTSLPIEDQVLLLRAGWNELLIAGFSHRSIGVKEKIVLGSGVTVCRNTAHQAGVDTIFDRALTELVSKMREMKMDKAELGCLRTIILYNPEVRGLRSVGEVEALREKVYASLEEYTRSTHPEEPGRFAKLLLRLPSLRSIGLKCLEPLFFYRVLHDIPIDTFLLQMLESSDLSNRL

Ecdysone receptor [2] = target: T2, Ecdysone receptor (Lucilia cuprina, UniProt O18531+Q962I5); experiment: Binding affinity to Lucilia cuprina EcR
T2 sequence (O18531 whole entry): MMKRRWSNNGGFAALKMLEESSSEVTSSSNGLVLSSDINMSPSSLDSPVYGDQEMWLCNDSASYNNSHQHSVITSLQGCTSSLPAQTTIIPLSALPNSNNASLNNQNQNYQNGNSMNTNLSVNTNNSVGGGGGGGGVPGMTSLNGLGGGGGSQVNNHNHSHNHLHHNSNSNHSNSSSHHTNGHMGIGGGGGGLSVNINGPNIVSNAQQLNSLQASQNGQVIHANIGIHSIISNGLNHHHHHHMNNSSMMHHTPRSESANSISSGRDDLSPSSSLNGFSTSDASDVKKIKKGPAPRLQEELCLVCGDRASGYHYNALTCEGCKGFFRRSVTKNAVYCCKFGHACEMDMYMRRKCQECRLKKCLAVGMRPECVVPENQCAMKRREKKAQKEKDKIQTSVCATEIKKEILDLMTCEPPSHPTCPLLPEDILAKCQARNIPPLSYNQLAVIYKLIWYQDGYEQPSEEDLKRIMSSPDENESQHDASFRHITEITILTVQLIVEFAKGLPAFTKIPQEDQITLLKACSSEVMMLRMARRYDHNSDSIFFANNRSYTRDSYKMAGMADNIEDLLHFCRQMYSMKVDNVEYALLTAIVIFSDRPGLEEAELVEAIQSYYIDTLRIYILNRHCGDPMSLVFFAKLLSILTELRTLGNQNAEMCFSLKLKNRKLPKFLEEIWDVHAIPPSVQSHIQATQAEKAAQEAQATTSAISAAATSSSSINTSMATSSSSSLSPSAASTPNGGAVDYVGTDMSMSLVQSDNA
T2 sequence (Q962I5 whole entry): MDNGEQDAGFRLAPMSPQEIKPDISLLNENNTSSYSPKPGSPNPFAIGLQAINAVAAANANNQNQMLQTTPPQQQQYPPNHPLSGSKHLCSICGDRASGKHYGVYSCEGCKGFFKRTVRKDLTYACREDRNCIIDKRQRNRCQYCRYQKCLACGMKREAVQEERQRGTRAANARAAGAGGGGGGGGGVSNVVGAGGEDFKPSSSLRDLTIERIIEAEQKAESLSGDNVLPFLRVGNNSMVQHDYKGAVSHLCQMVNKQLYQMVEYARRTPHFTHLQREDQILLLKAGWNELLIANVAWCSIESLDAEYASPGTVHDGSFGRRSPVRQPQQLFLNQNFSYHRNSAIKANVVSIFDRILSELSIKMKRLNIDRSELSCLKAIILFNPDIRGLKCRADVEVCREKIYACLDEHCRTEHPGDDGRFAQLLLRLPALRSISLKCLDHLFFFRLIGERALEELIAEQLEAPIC

Ecdysone receptor [3] = target: T3, Ecdysone receptor (Chironomus tentans, UniProt O45117+P49882); experiment: Binding affinity to Chironomus tentans EcR
T3 sequence (P49882 whole entry): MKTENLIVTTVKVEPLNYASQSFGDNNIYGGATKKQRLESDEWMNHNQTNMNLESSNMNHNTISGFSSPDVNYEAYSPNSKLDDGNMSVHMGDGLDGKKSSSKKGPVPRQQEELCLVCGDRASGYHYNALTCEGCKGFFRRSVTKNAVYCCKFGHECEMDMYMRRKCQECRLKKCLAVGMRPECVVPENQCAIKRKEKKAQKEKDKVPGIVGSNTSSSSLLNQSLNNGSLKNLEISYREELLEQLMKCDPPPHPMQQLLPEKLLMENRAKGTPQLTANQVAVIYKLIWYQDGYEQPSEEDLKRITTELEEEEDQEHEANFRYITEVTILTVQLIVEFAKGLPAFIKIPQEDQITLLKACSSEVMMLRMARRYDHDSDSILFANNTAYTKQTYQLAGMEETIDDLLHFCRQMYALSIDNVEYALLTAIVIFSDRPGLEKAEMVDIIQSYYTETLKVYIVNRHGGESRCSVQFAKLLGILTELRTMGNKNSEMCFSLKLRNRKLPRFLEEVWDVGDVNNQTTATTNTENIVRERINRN
T3 sequence (O45117 whole entry): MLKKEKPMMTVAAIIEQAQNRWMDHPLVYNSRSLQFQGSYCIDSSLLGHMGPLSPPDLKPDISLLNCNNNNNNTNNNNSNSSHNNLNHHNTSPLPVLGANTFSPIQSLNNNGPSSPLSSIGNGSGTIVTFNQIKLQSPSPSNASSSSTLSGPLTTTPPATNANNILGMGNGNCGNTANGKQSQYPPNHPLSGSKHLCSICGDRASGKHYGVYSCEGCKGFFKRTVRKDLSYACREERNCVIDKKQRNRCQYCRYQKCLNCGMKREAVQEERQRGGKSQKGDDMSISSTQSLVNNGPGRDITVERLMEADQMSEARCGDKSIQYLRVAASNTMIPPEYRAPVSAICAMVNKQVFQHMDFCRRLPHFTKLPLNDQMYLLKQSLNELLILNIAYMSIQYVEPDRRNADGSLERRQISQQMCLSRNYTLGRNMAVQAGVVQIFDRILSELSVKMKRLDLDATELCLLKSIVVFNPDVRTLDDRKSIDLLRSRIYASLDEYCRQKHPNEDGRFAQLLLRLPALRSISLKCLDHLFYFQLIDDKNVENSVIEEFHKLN

CCc1ccc(C(=O)NN(C(=O)c2cc(C)cc(C)c2)C(C)(C)C)cc1 [TEBUFENOZIDE]
Ki (Ecdysone receptor [1]): 25.1 µM
Ki (Ecdysone receptor [2]): 0.158 µM
Ki (Ecdysone receptor [3]): 0.01 µM
